The results in this text go back to publication PMC9052545 (RSC Advances, 2020).

The assay has as its target HER2-Fc (HER2) (Homo sapiens, UniProt P04626). The note with it: SEM, n = 3.
One may read the Kd as a measure of binding affinity in units of concentration. Low values mean higher affinity, high ones lower affinity. In turn, “FN3 with RKPKSG grafted at residues 51-56 (His-tagged) [FN3-p4.4]” showed a Kd of 500 ± 150 nM.
On to “FN3 with YCPVCM grafted at residues 51-56 (His-tagged) [FN3-p1.M.3]”, for which binding was put at a Kd of 110 ± 28 nM.
The figure for “FN3 with YCGCEM grafted at residues 51-56 (His-tagged) [FN3-p1]” is 280 ± 23 nM; for “FN3 with YCICCM grafted at residues 51-56 (His-tagged) [FN3-p1.M.1]” it is 68 ± 14 nM.
